# Measured values as given in BindingDB's records for doi:10.1016/s0960-894x(00)00166-9 (Universidad Complutense, 2000).
# pKi: −log10 of the molar value.
# Target: 5-hydroxytryptamine receptor 7 (Rattus norvegicus, UniProt P32305)
# Test: Binding affinity towards 5-hydroxytryptamine 7 receptor
# 5-hydroxytryptamine receptor 7, sequence (P32305 whole entry): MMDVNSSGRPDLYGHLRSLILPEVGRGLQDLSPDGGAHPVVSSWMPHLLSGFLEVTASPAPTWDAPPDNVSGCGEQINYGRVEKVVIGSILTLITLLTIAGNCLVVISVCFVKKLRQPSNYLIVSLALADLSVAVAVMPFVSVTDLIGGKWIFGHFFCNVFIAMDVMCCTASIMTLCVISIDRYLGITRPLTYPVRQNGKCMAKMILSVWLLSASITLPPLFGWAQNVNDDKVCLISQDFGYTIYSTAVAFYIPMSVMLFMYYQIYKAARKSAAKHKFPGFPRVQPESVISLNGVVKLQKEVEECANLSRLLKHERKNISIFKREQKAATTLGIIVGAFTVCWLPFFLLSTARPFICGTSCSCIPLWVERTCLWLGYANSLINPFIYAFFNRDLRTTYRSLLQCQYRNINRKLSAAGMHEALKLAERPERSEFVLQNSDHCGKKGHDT
smiles,measurement,value
CC(C)(C)[C@]1(O)CCN2C[C@H]3c4ccccc4CCc4cccc(c43)[C@@H]2C1,pKi,7.20
